How the values were obtained:
hSTING REF allele = target: T1, hSTING REF allele (Homo sapiens, UniProt Q86WV6); experiment: ITC binding assay, hSTING REF allele; settings: 25° C., protein 0.1 mM, ligand 0.35 mM
T1 construct: made in house; host or cells: BL21 Rosetta 2 (DE3) E. coli
Procedure: (§1) The WT and REF proteins were similarly prepared for use in an ITC binding assay. Expression plasmids were transformed into BL21 Rosetta 2 (DE3) (EMD Millipore) E. coli cells for protein expression. 50 ml starter cultures were grown overnight in 2×YT supplemented with 50 μg/ml kanamycin and 30 μg/ml chloramphenicol. Multi-liter large scale cultures of the same growth media as the starter were inoculated at a ratio of 1:1,000 (V/V) and allowed to grow at 37° C. to an optical density of 0.6, cultures were then shifted to 18° C. Protein expression was induced by the addition of isopropyl β-D-1-thiogalactopyranoside to a final concentration of 0.3 mM. Protein expression was allowed to proceed for 18-24 hrs. Pelleted cells were resuspended in 50 mM Tris pH 7.5, 500 mM NaCl, 10% glycerol, 20 mM imidazole, 1 mM TCEP and complete protease inhibitor cocktail (Sigma). Cells were lysed by sonication (Branson) and insoluble material was removed by centrifugation. Proteins were purified on Ni-NTA resin and concentrated to >10 mg/ml. 6×H-SUMO-STING LBD was further purified by gel filtration chromatography using a High Load 26/600 Superdex 75 column (GE Healthcare) in a buffer of 20 mM Tris pH 7.5, 150 mM NaCl, 5% glycerol and 1 mM TCEP. Peak fractions were concentrated to between 10-15 mg/ml via ultrafiltration aliquoted and flash frozen in liquid nitrogen and stored at […]
The resulting amino acid sequences for the STING REF allele is as follows: • Allele Name: REF • Amino Acid Sequence:
(§2) Proteins were dialyzed overnight in 20 mM HEPES pH 7.5, 150 mM NaCl. Insoluble material was removed by centrifugation at 31,000×g. The invention compound 2′2′-RR-(3′F-A)(3′F-A) and comparison STING agonists 3′3′-RR-(2′F-A)(2′F-A); 2′3′-RR-(3′F-A)(2′F-A) were resuspended in dialysis buffer. The concentration of both the protein and ligands were checked by spectroscopy and adjusted if necessary.
(§3) STING protein was added to the ITC sample cell at a final concentration of 0.1 mM. The CDN ligand was at a final concentration of 0.35 mM in the syringe. […]

[1] = test system: THP1 cells (hSTING HAQ allele); experiment: THP1-Dual IRF-3 luciferase reporter assay without digitonin; format: cell-based, human; settings: 30 min compound incubation, overnight readout of secreted luciferase
Procedure: Cells were washed with fresh media and incubated for 30 min at 37° C. with 5% CO2 with compounds in 3-fold titration steps from 2,000 to 0.0338 μM in PB buffer (50 mM 4-(2-hydroxyethyl)-1-piperazineethanesulfonic acid, 100 mM KCl, 3 mM MgCl2, 0.1 mM dithiothreitol, 85 mM sucrose, 1 mM ATP, 0.1 mM GTP and 0.2% bovine serum albumin). After 30 minutes, cells were washed and fresh RPMI media containing 10% FBS was added, and cells were incubated at 37° C. with 5% CO2. Cell culture supernatants from each sample were collected after overnight incubation, and 10 μl of the cell culture supernatants was added to 50 μl QUANTI-Luc reagent (Invivogen). Type I interferon activation was determined by measuring secreted luciferase levels on a SpectraMax M3 spectrophotometer (Molecular Devices). The EC50 value for the same compounds as tested in Example 4 was determined from the dose-response curve for the 10 concentrations from the serial dilution of the compounds in this assay.

hSTING WT = target: T2, hSTING WT (Homo sapiens, UniProt Q86WV6, H232R); experiment: ITC binding assay, hSTING WT; settings: 25° C., protein 0.1 mM, ligand 0.35 mM
T2 construct: made in house; host or cells: BL21 Rosetta 2 (DE3) E. coli
Procedure: as §1
The resulting amino acid sequence for the STING WT allele is as follows: • Allele Name: WT • Amino Acid Sequence:
as §2, §3

Kd (hSTING REF allele) [µM]	EC50 ([1]; Homo sapiens, THP-1, 0.5 h) [µM]	Kd (hSTING WT) [µM]	EC50 [1] [µM]	Compound
0.591	15.6	0.074	–	Nc1ncnc2c1ncn2[C@@H]1O[C@@H]2CO[P@@](=O)(S)O[C@H]3[C@@H](F)[C@H](n4cnc5c(N)ncnc54)O[C@@H]3CO[P@@](=O)(S)O[C@H]2[C@H]1F [3′3′-RR-(2′F-A)(2′F-A), (2R,3R,3aR,5R,7aR,9R,10R,10aR,12R,14aR)-2,9-bis(6-amino-9H-purin-9-yl)-3,10-difluoro-5,12-dimercaptooctahydro-2H,7H-difuro[3,2-d:3′,2′-j][1,3,7,9]tetraoxa[2,8]diphosphacyclododecine 5,12-dioxide]
–	–	–	> 150	Nc1nc2c(ncn2[C@@H]2O[C@@H]3COP(=O)(O)O[C@H]4[C@@H](O)[C@H](n5cnc6c(N)ncnc65)O[C@@H]4COP(=O)(O)O[C@@H]2[C@@H]3O)c(=O)[nH]1 [2′3′-(G)(A)]

From patent US10975114B2, “Bis 2′-5′-RR-(3′F-A)(3′F-A) cyclic dinucleotide compound and uses thereof” (ADURO BIOTECH, INC., priority 2017, dated 2021)
